Laboratory results as given in patent publication US7884131B2, “Oxylipins from long chain polyunsaturated fatty acids and methods of making and using the same” (Martek Biosciences, Corporation, priority 2004, dated 2011).
“Also recorded” adds a separate entry of the source.

Legend:
[1] = system: total cell migration into air pouch exudates; assay: Mouse dorsal air pouch model: total cell migration; assay type: in vivo, C57/B16 mice; details: 100 ng docosanoid intra-pouch, 100 ng TNFα, 4 hours after TNFα
Description: (§1) Pure 17R-hydroxy DHA (17R-HDHA) was purchased from Caymen Chemicals (Ann Arbor, Mich.). Docosanoids 17-hydroxy-DPAn-6 (17-HDPAn-6) and 10,17-dihydroxyDPAn-6 (10,17-HDPAn-6) were synthesized biogenically from DPAn-6 (NuChek Prep, Elysian, Minn.) using soybean 15-lipoxygenase (Sigma-Aldrich) and purified by HPLC as described in Example 2. Organic solvents were evaporated and the compounds were re-dissolved in phosphate buffered saline (PBS), filter sterilized and concentrations were adjusted to 1000 ng/ml using molar extinction coefficients of 28,000 and 40,000 M^−1cm^−1 for the mono- and dihydroxy docosanoids, respectively. Female C57/B16 mice (n=10 mice per group) were injected with sterile air subcutaneously in the back to initiate dorsal air pouches. Six days later, 0.9 ml sterile PBS followed by 100 ng docosanoid in 0.1 ml PBS or PBS alone were administered by intra-pouch injection. This injection was followed within 5 min by intra-pouch injection of 100 ng of mouse recombinant TNFα (Peprotech, Inc, NJ, USA) in 0.1 ml PBS. Control animals received no TNFα. As a positive control, 2 mg/kg indomethacin (Calbiochem, San Diego, Calif.) was administered intraperitoneally 30 min prior to administration of TNFα. Four hours after TNFα administration, air pouch exudates were removed and cells were stained with Turk's solution and counted. […]

IL-1β = assay: Mouse dorsal air pouch model: IL-1β in exudates; assay type: in vivo, C57/B16 mice; details: 100 ng docosanoid intra-pouch, 100 ng TNFα, 4 hours after TNFα, ELISA
Description: as §1

[2] = system: macrophage chemotactic protein-1 (MCP-1); assay: Mouse dorsal air pouch model: MCP-1 in exudates; assay type: in vivo, C57/B16 mice; details: 100 ng docosanoid intra-pouch, 100 ng TNFα, 4 hours after TNFα, ELISA
Description: as §1

[3] = system: human T lymphocytes stimulated with anti-CD3/anti-CD28 antibodies; assay: TNFα secretion by human T lymphocytes; assay type: cell-based; details: 6 hrs pretreatment, 41 hrs on anti-CD3/anti-CD28 coated wells, ELISA; difference at 10 nM p=0.037
Protocol: FIG. 22A: Effect of Docosanoids on TNFα Secretion by Human T Lymphocytes. The assay was performed essentially as described in Ariel et al, 2005. Briefly, human peripheral blood mononuclear cells were isolated from venous blood by Ficoll-Paque™ Plus (Amersham biosciences) gradient. T lymphocytes were isolated using a human T cell enrichment column (R&D Systems) per manufacturer's instructions. Purified T cells were treated with 10,17-dihydroxy DPAn-6 or 10,17-dihydroxy DHA or vehicle (0.05% ethanol) in RPMI-1640 media containing 10% heat inactivated fetal bovine serum for 6 hrs at 37° C. Lymphocytes (200,000 cells in 200 μl media per well) were then transferred to 96-well plates coated with both anti-CD3 antibody and anti-CD28 antibody (100 μl of 2 μg/ml of each antibody overnight to coat wells) and incubated for 41 hrs. TNFα concentrations were determined in cell supernatants by ELISA (R&D Systems). Group means±stdev (n=4) were compared by Student's t test. *p<0.05 and **p<0.01 compared to control; # indicates statistical difference (p=0.037) between the groups treated with 10,17-dihydroxy DPAn-6 and 10,17-dihydroxy DHA at the 10 nM concentrations.

[4] = system: Carrageenan-induced hind paw edema; assay: Rat paw edema study with LCPUFA-containing diets; assay type: in vivo, Sprague Dawley rats; details: diets fed 4 weeks, 1% carrageenan, 3 hours post-injection, Day 28
Protocol: Adult, male, Sprague Dawley rats (n=10/treatment group) were fed modified AIN-76 diets formulated to include 1.2% DHA, 1.2% DHA+0.44% DPAn-6, or 1.2% DHA+0.46% arachidonic acid (ARA) for 4 weeks. Carrageenan (1%) was used to induce hind paw edema on Day 14 (left paw) and Day 28 (right paw) of feeding. Edema was measured plethysmographically using water displacement 3 hours post-injection. Similar results were obtained on day 14. *p≦0.05.

Soybean 15-lipoxygenase = target: T1, Soybean 15-lipoxygenase (Glycine max, UniProt P08170); assay: 15-lipoxygenase reaction with LCPUFA substrates; assay type: biochemical; details: 100 μM fatty acid, 4 μg/ml enzyme, 0.05M sodium borate buffer pH 9.0, 0° C., absorbance at 238 nm
T1 construct: purchased Sigma-Aldrich
T1 sequence (P08170 1-839): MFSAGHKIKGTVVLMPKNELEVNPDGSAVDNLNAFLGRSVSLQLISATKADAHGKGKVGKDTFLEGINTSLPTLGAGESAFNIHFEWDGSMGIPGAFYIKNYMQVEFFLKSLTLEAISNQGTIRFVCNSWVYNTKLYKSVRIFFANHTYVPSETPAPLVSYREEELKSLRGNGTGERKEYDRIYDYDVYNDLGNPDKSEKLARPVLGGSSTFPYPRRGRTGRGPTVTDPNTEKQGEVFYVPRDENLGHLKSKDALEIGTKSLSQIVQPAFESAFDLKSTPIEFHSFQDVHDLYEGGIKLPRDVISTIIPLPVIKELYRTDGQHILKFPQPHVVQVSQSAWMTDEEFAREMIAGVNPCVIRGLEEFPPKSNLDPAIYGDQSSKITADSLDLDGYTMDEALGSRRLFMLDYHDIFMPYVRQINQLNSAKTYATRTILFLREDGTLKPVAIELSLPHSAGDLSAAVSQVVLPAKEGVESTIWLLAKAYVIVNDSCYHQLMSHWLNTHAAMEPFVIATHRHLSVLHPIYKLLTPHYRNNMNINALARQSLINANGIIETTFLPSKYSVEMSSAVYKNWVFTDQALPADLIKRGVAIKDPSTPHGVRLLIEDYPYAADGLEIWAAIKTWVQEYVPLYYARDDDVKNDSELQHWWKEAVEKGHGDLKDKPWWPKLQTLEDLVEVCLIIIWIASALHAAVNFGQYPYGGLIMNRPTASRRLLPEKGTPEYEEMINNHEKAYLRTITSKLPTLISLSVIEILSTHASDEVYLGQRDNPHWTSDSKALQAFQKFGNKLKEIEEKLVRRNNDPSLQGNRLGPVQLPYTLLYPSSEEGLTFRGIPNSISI
Protocol: Soybean 15-lipoxygenase (Sigma-Aldrich, St. Louis, Mo.) at a final concentration of 4 μg/ml was mixed into 100 μM solutions of DHA, DPAn-6, or DPAn-3 (NuChek Prep, Elysian, Minn.) in 0.05M sodium borate buffer, pH 9.0, and the reaction mixtures were incubated at 0° C. Appearance of the mono-hydroxy conjugated diene derivatives of the fatty acids was monitored through absorbance at 238 nm. Conjugated diene products were quantified using an extinction coefficient of 28,000 M^−1cm^−1 (Shimizu et al; Methods in Enzymology, 1990 Vol 187, 296-306). As shown in Example. 1, 100% of the DPAn-6 was efficiently converted to its conjugated diene derivative under these conditions, whereas about 85% of DPAn-3 and 50% of DHA were converted to their respective conjugated diene (mono-hydroxy) derivative by the 15-lipoxygenase. No appreciable accumulation of the dihydroxy derivatives occurred under these reaction conditions.

[5] = system: inflammatory cytokine production; assay: Consumption of LCPUFA oils: inflammatory cytokine production; assay type: in vivo; details: consumption of the oil; DHA dose approximately three times higher in DHA alone than in the DHA+DPAn-6 oil
[6] = system: Inflammatory eicosanoid secretion; assay: Consumption of LCPUFA oils: inflammatory eicosanoid secretion; assay type: in vivo; details: compared to DHA alone

Row | converted to conjugated diene (mono-hydroxy) derivative by the 15-lipoxygenase (Soybean 15-lipoxygenase) | Compound | total number of cells in the air pouch (cell infiltration) [1] | secretion of IL-1β in air pouch exudates (IL-1β) | secretion of MCP-1 in air pouch exudates [2] | other results
1 |  | 10,17-dihydroxy DPAn-6 | significant reductions | significant reductions; also recorded: significantly larger than with that produced by either the DHA oxylipin derivative or indomethacin | significant reductions; also recorded: larger inhibition of MCP-1 secretion than indomethacin | reducing TNFα secretion by T lymphocytes [3]: more potent than the DHA analog (10,17,dihydroxy DHA)
2 |  | CCCCCC(O)/C=C/C=C\C/C=C\C/C=C\C/C=C\CCC(=O)O (stereo not shown) [17-hydroxy DPAn-6] | significant reductions; also recorded: more potent than both 17R-hydroxy DHA and indomethacin | significant reductions | significant reductions; also recorded: larger inhibition of MCP-1 secretion than indomethacin | 
3 |  | CCCCC/C=C\C/C=C\C/C=C\C/C=C\CCCC(=O)O [ARA, arachidonic acid (C20:4n-6)] |  |  |  | reduction in edema volume [4]: reversed the anti-inflammatory activity of DHA
4 | ~50% | CC/C=C\C/C=C\C/C=C\C/C=C\C/C=C\C/C=C\CCC(=O)O [DHA, docosahexaenoic acid (C22:6n-3), reference compound] |  |  |  | reduction in inflammatory cytokine production [5]: 13-29%
5 | about 85% | CC/C=C\C/C=C\C/C=C\C/C=C\C/C=C\CCCCCC(=O)O [DPAn-3, docosapentaenoic acid (C22:5n-3)] |  |  |  | 

Row | Compound | converted to conjugated diene (mono-hydroxy) derivative by the 15-lipoxygenase (Soybean 15-lipoxygenase) | total number of cells in the air pouch (cell infiltration) [1] | secretion of IL-1β in air pouch exudates (IL-1β) | secretion of MCP-1 in air pouch exudates [2] | other results
6 | docosapentaenoic acid (C22:5n-6) [DPAn-6] | 100% |  |  |  | Inflammatory eicosanoid secretion [6]: significantly reduced
